Reference: patent publication US20200163913A1 (Shanghai Huali Biomedical Co., Ltd., priority 2017, published 2020)
Like-named read-outs stand apart in the source and are kept apart here.

Columns and labels:
[1] = test system: human cervical cancer cell HeLa; test: CCK-8 cell proliferation inhibition, HeLa; format: cell-based
Procedure: (§1) Take more than 90% of live cells for experiments. Cell proliferation inhibition test uses EnoGeneCell™ Counting Kit-8 (CCK-8) cell viability detection kit. Cells are digested and counted to make a cell suspension with a concentration of 1×10^5 cells/mL, 100 μL of cell suspension (1×10^4 cells per well) was added to each well of a 96-well plate; Incubate in a 5% CO2 incubator for 24 hours; add 100 μL of the corresponding drug-containing culture medium to each well, and set a negative control group, a vehicle control group, and a positive control group, with 5 replicates in each group; place the 96-well plate at 37° C.

[2] = test system: human lung cancer cell A549; test: CCK-8 cell proliferation inhibition, A549; format: cell-based
Procedure: as §1

[3] = test system: human colon cancer cell HCT-116; test: CCK-8 cell proliferation inhibition, HCT-116; format: cell-based
Procedure: as §1

[4] = test system: human liver cancer cell HepG2; test: CCK-8 cell proliferation inhibition, HepG2; format: cell-based; conditions: read-out: IC50 HepG2
Procedure: as §1

[5] = test system: human gastric cancer cell MKN45; test: CCK-8 cell proliferation inhibition, MKN45; format: cell-based; conditions: read-out: IC50 MKN45
Procedure: as §1

[6] = test system: human gastric cancer cell MGC-803; test: CCK-8 cell proliferation inhibition, MGC-803; format: cell-based; conditions: read-out: IC50 MGC803
Procedure: as §1

Arylsulfatase = Arylsulfatase activity assay in vitro; format: biochemical; conditions: p-nitrophenyl sulfate substrate, 405 nm; read-out: IC50 sulfatase
Procedure: Weigh an appropriate amount of the test compound and dissolve it in dimethyl sulfoxide. Dilute it with Tris-HCl buffer for 2, 5, 10, 20, 50, 100, 200, 500, 1000, 2000, 5000, and 10,000 times. Add another dilution gradient to the sample. Arylsulfatase and potassium p-nitrophenyl sulfate are directly dissolved in Tris-HCl buffer. 40 μL of the test compound, 50 μL of arylsulfatase and 50 μL of potassium p-nitrobenzene sulfate were added to a 96-well plate for reaction. A blank control without enzymes and a standard control without test compounds are used. The volume is made up with Tris-HCl buffer. 405 nm detection in the microplate reader, each sample is measured for 40 times, and the interval is 30 s. The representative time node within the time period with good linearity of the absorbance value are selected for data analysis. The measured absorbance value are subtracted from the background value of the blank control and the initial value when the reaction time are 0. For comparison, calculate the inhibition rate at different concentrations, and use the built-in forecast function of excel to predict the IC50 value.

Tubulin = Tubulin polymerization activity test; format: biochemical; conditions: tubulin 4.8 mg/ml, 37° C., 340 nm; read-out: IC50 (Table 3, tubulin polymerization test)
Procedure: Tubulin (4.8 mg/ml) protein was mixed with the test compound in a PEM buffer (100 mM PIPES, 1 mM MgCl2 and 1 mM EGTA) containing 1 mM GTP and 5% glycerol. A SPECTRA MAX 190 (Molecular Device) spectrophotometer was used to monitor the microtubule polymerization at 37° C. by light scattering at 340 nm, and the microtubule polymerization was calculated from the absorbance value. Each sample was tested three times at ten different concentrations.

sarcoma S180 = test: Tumor inhibition rate on sarcoma S180 mouse transplantation tumor; format: in vivo, mice; conditions: for tumor observation: 8th day after administration; for Inhibition rate (tumor weight): dose 25 mg/kg, d0-d12 7 times, sacrifice day 14
Source text: After 1 week of adaptation, the mice were inoculated subcutaneously with sarcoma S180 tumor tissue. After the tumor grew 100-300 mm3, the animals were randomly divided into groups.

[7] = Acute toxicity test of single intragastric administration of mice; conditions: both sexes, Kunming, mouse, in vivo, po, 14 days observation
Procedure: Kunming mice (body weight: 17-22 g, male and female), randomly divided according to body weight. […] The doses were 150, 130, 120, 110, 100, 90, 80, 70, 60, 50, 40, 30 mg/kg by single intragastric administration, 0.25 h, 0.5 h, 1 h, 2 h after administration Observe once every 4 h, 24 h, and then record the mortality, then observe it once a day, record the mortality for 14 days, and sacrifice the undead mice on the 15th day for pathological dissection.

[8] = Homo sapiens, HeLa, 72 h, CCK-8, 72 h, read-out: IC50 Hela
[9] = Homo sapiens, HeLa, read-out: IC50 HeLa
[10] = A549, CCK-8, 72 h, read-out: IC50 A549
[11] = Homo sapiens, HCT-116, 72 h, CCK-8, 72 h, read-out: IC50 HTC116
[12] = Homo sapiens, HCT-116, running text, read-out: IC50 HCT-116
[13] = Homo sapiens, HepG2, 72 h, CCK-8, 72 h
[14] = Homo sapiens, HepG2, running text

COc1ccc(/C=C\c2cc(OC)c(OC)c(OC)c2)cc1OS(N)(=O)=O [Compound A1-1, (Z)-3,4,5-trimethoxy-4′-methoxy-3′-sulfamate stilbene]
IC50 [1, 8]: 458 nM
IC50 [1, 9]: 340 nM
IC50 [2, 10]: 481 nM
IC50 ([2]; A549, read-out: IC50 A549): < 500 nM
IC50 [3, 11]: 222 nM
IC50 [3, 12]: 222 nM
IC50 [4, 13]: 335 nM
IC50 [4, 14]: < 1000 nM
IC50 ([5]; MKN-45, 72 h, CCK-8, 72 h): 599 nM
IC50 ([5]; MKN-45, running text): < 600 nM
IC50 ([6]; MGC-803, 72 h, CCK-8, 72 h): 298 nM
IC50 ([6]; MGC-803, running text): < 600 nM
IC50 (Arylsulfatase): 6160 nM
IC50 (Tubulin): 6600 nM
tumor observation (sarcoma S180): shrinking trend
Inhibition rate (tumor weight) (sarcoma S180): 42%
LD50 at 14 days [7]: 106 mg/kg

CCOc1ccc(/C=C\c2cc(OC)c(OC)c(OC)c2)cc1OS(N)(=O)=O [Compound A2-1, (Z)-3,4,5-trimethoxy-4′-ethoxy-3′-sulfamate stilbene]
IC50 [1, 8]: 480 nM
IC50 [1, 9]: 480 nM
IC50 ([1]; listed as (Z)-3,4,5-trimethoxy-4′-ethoxy-3′-aminosulfamatestilbene, read-out: IC50 HeLa): < 500 nM
IC50 [2, 10]: 229 nM
IC50 ([2]; A549, read-out: IC50 A549): < 500 nM
IC50 [3, 11]: 446 nM
IC50 [3, 12]: 446 nM
IC50 ([3]; listed as (Z)-3,4,5-trimethoxy-4′-ethoxy-3′-aminosulfamatestilbene, read-out: IC50 HCT-116): < 500 nM
IC50 [4, 13]: 412 nM
IC50 [4, 14]: < 1000 nM
IC50 ([4]; listed as (Z)-3,4,5-trimethoxy-4′-ethoxy-3′-aminosulfamatestilbene): < 500 nM
IC50 ([5]; MKN-45, 72 h, CCK-8, 72 h): 325 nM
IC50 ([5]; MKN-45, running text): < 500 nM
IC50 ([6]; MGC-803, 72 h, CCK-8, 72 h): 267 nM
IC50 ([6]; MGC-803, running text): < 500 nM
tumor observation (sarcoma S180): shrinking trend
Inhibition rate (tumor weight) (sarcoma S180): 40%
LD50 at 14 days [7]: 101 mg/kg
